From ChEMBL document CHEMBL3102819, “Morpholylureas are a new class of potent and selective inhibitors of the type 5 17-β-hydroxysteroid dehydrogenase (AKR1C3)” (Bioorg Med Chem, 2014)
Numbering of substitutions follows the chain as printed.

Key:
[1] = target: T1, Aldo-keto reductase family 1 member C4 (Homo sapiens, UniProt P17516); test: Inhibition of recombinant AKR1C4 (unknown origin) after 1 hr by competitive fluorescence assay
T1 sequence (P17516 whole entry): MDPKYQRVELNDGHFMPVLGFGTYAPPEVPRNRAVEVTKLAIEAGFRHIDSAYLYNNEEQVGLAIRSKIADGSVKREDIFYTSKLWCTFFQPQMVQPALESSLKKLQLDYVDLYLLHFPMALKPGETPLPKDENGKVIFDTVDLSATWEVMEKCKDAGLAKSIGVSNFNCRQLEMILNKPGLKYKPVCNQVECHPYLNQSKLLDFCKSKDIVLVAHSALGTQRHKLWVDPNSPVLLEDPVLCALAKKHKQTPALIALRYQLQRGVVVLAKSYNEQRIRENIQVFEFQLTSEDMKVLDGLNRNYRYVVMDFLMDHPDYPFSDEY

[2] = target: T2, Aldo-keto reductase family 1 member C3 (Homo sapiens, UniProt P42330); test: Inhibition of recombinant AKR1C3 (unknown origin) after 1 hr by competitive fluorescence assay
T2 sequence (P42330 whole entry): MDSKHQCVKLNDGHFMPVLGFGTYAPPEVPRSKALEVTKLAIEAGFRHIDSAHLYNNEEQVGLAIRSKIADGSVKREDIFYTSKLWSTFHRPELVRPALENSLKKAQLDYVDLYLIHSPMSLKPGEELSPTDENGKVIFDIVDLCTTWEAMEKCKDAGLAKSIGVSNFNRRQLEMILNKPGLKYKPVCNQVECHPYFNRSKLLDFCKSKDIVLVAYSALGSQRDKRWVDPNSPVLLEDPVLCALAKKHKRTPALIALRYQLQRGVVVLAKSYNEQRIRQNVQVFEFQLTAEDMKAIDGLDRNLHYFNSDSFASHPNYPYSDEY

[3] = target: T3, Aldo-keto reductase family 1 member C1 (Homo sapiens, UniProt Q04828); test: Inhibition of recombinant AKR1C1 (unknown origin) after 1 hr by competitive fluorescence assay
T3 sequence (Q04828 whole entry): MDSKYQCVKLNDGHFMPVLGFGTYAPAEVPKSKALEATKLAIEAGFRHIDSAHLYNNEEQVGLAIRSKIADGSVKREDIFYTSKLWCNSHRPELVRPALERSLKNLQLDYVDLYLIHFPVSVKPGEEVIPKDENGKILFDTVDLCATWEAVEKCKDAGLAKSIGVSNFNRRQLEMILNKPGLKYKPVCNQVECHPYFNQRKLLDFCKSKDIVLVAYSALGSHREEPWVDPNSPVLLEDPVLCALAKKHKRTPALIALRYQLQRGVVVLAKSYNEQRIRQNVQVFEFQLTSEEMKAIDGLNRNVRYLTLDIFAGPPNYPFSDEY

[4] = target: T4, Aldo-keto reductase family 1 member C2 (Homo sapiens, UniProt P52895); test: Inhibition of recombinant AKR1C2 (unknown origin) after 1 hr by competitive fluorescence assay
T4 sequence (P52895 whole entry): T3 sequence (Q04828 whole entry) with T38V, R47H, L54V, C87S, V151M, R170H, Q172L

[5] = target: T2, Aldo-keto reductase family 1 member C3; test: Inhibition of AKR1C3 (unknown origin) expressed in human HCT116 cells assessed as formation of PR-104H from PR-104A preincubated for 2 hrs; type: cell-based, HCT-116

Structure (SMILES) | IC50 [1] | IC50 [2] | IC50 [3] | IC50 [4] | IC50 [5]
O=C(N1CCOCC1)N1CCN(c2ccccc2)CC1 | > 30 µM | 6.1 µM | > 30 µM | > 30 µM | –
O=C(N1CCCCC1)N1CCN(c2ccc(Cl)cc2)CC1 | > 30 µM | 3.8 µM | > 30 µM | > 30 µM | –
COc1ccccc1N1CCN(C(=O)N2CCOCC2)CC1 | – | 20.3 µM | – | – | –
CN1CCN(C(=O)N2CCN(c3ccc(Cl)cc3)CC2)CC1 | – | > 30 µM | – | – | –
O=C(N1CCN(c2ccc(Cl)cc2)CC1)N1CCc2ccccc2C1 | > 30 µM | 0.35 µM | > 30 µM | > 30 µM | 0.39 µM
O=S(=O)(N1CCOCC1)N1CCN(c2ccc(Cl)cc2)CC1 | – | > 30 µM | – | – | –
O=C(N1CCOCC1)N1CC2CC1CN2c1ccc(Cl)cc1 (stereo not given) | > 30 µM | 3.7 µM | > 30 µM | > 30 µM | –
Cc1cc(Cl)ccc1N1CCN(C(=O)N2CCOCC2)CC1 | > 30 µM | 0.11 µM | > 30 µM | > 30 µM | 0.013 µM
O=C(N1CCOCC1)N1CCN(c2ccc(Cl)nc2)CC1 | > 30 µM | 0.53 µM | > 30 µM | > 30 µM | –
O=C(N1CCOCC1)N1CCN(c2ccc(Br)cn2)CC1 | > 30 µM | 0.1 µM | > 30 µM | > 30 µM | 0.031 µM
O=C(N1CCOCC1)N1CCN(Cc2ccc(Cl)cc2)CC1 | > 30 µM | 0.35 µM | > 30 µM | > 30 µM | –
O=C(c1ccc(Cl)cc1)N1CCN(C(=O)N2CCOCC2)CC1 | > 30 µM | 0.48 µM | > 30 µM | > 30 µM | –
O=C(C1CCOCC1)N1CCN(c2ccc(Cl)cc2)CC1 | – | > 30 µM | – | – | –
O=C(N1CCSCC1)N1CCN(c2ccc(Cl)cc2)CC1 | > 30 µM | 9.1 µM | > 30 µM | > 30 µM | –
C#Cc1ccc(N2CCN(C(=O)N3CCOCC3)CC2)cc1 | > 30 µM | 0.66 µM | > 30 µM | > 30 µM | –
O=C(N1CCOCC1)N1CCN(c2ccc(C(F)(F)F)cc2)CC1 | > 30 µM | 0.068 µM | > 30 µM | > 30 µM | 0.022 µM
O=C(N1CCOCC1)N1CCN(c2ccc(Cl)cc2)CC1 | > 30 µM | 0.11 µM | > 30 µM | > 30 µM | 0.018 µM
CNC(=O)c1ccc(N2CCN(C(=O)N3CCOCC3)CC2)cc1 | – | > 30 µM | – | – | –
CN(C)C(=O)c1ccc(N2CCN(C(=O)N3CCOCC3)CC2)cc1 | – | > 30 µM | – | – | –
CS(=O)(=O)c1ccc(N2CCN(C(=O)N3CCOCC3)CC2)cc1 | > 30 µM | 5.52 µM | > 30 µM | > 30 µM | –
O=C(N1CCOCC1)N1CCN(c2ccc([N+](=O)[O-])cc2)CC1 | > 30 µM | 0.57 µM | > 30 µM | > 30 µM | –
O=C(N1CCOCC1)N1CCN(c2ccccc2C(F)(F)F)CC1 | > 30 µM | 0.7 µM | > 30 µM | > 30 µM | –
NC(=O)c1cccc(N2CCN(C(=O)N3CCOCC3)CC2)c1 | – | > 30 µM | – | – | –
O=C(N1CCOCC1)N1CCN(c2ccc(-c3ccccc3)cc2)CC1 | – | > 30 µM | – | – | –

Other lines, results leading:

IC50 [1] | IC50 [2] | IC50 [3] | IC50 [4] | IC50 [5] | Structure (SMILES)
> 30 µM | 0.5 µM | > 30 µM | > 30 µM | – | O=C(N1CCOCC1)N1CCN(c2ccc(F)cc2)CC1
– | > 30 µM | – | – | – | O=C(NC1CCCCC1)N1CCN(c2ccc(Cl)cc2)CC1
– | > 30 µM | – | – | – | O=C(c1ccccc1)N1CCN(c2ccc(Cl)cc2)CC1
– | > 30 µM | – | – | – | CS(=O)(=O)Nc1ccc(N2CCN(C(=O)N3CCOCC3)CC2)cc1
– | > 30 µM | – | – | – | O=C(N1CCN(CCO)CC1)N1CCN(c2ccc(Cl)cc2)CC1
– | 21.9 µM | – | – | – | O=C(O)C1CCN(C(=O)N2CCN(c3ccc(Cl)cc3)CC2)CC1
> 30 µM | 0.46 µM | > 30 µM | > 30 µM | 0.059 µM | O=C(CO)N1CCN(C(=O)N2CCN(c3ccc(Cl)cc3)CC2)CC1
– | > 30 µM | – | – | – | S=C(N1CCOCC1)N1CCN(c2ccc(Cl)cc2)CC1
– | 30 µM | – | – | – | O=C(N1CCOCC1)N1CCCN(c2ccc(Cl)cc2)CC1
– | > 30 µM | – | – | – | CC(=O)Nc1ccc(N2CCN(C(=O)N3CCOCC3)CC2)cc1
> 30 µM | 0.025 µM | > 30 µM | > 30 µM | 0.003 µM | O=C(N1CCOCC1)N1CCN(c2ccc(Cl)cc2Cl)CC1
> 30 µM | 0.16 µM | > 30 µM | > 30 µM | 0.013 µM | O=C(N1CCOCC1)N1CCN(c2ccc(Cl)cc2CO)CC1
– | > 30 µM | – | – | – | O=C(C1CCCCC1)N1CCN(c2ccc(Cl)cc2)CC1
– | > 30 µM | – | – | – | O=C(Nc1ccccc1)N1CCN(c2ccc(Cl)cc2)CC1
– | 12.6 µM | – | – | – | O=C(c1ccncc1)N1CCN(c2ccc(Cl)cc2)CC1
– | > 30 µM | – | – | – | O=C(N1CCN(c2ccc(Cl)cc2)CC1)N1CC[S+]([O-])CC1
– | > 30 µM | – | – | – | O=C(N1CCN(c2ccc(Cl)cc2)CC1)N1CCS(=O)(=O)CC1
> 30 µM | 2.9 µM | > 30 µM | > 30 µM | – | O=C(N1CCOCC1)N1CCN(c2cnc3ccccc3c2)CC1
> 30 µM | 0.14 µM | > 30 µM | > 30 µM | 0.012 µM | O=C(N1CCOCC1)N1CCN(c2ccc(Br)cc2)CC1
> 30 µM | 0.067 µM | > 30 µM | > 30 µM | 0.01 µM | O=C(N1CCOCC1)N1CCN(c2ccc(I)cc2)CC1
> 30 µM | > 30 µM | > 30 µM | > 30 µM | – | COC(=O)c1ccc(N2CCN(C(=O)N3CCOCC3)CC2)cc1
– | > 30 µM | – | – | – | O=C(O)c1ccc(N2CCN(C(=O)N3CCOCC3)CC2)cc1
– | > 30 µM | – | – | – | NC(=O)c1ccc(N2CCN(C(=O)N3CCOCC3)CC2)cc1
– | 12.1 µM | – | – | – | Cc1ccccc1N1CCN(C(=O)N2CCOCC2)CC1
> 30 µM | 2.3 µM | > 30 µM | > 30 µM | – | O=C(N1CCOCC1)N1CCN(c2ccccc2Cl)CC1
> 30 µM | 5.3 µM | > 30 µM | > 30 µM | – | O=C(N1CCOCC1)N1CCN(c2cccc(Cl)c2)CC1
> 30 µM | 0.36 µM | > 30 µM | > 30 µM | – | Cc1ccc(N2CCN(C(=O)N3CCOCC3)CC2)cc1
> 30 µM | 0.35 µM | > 30 µM | > 30 µM | – | COc1ccc(N2CCN(C(=O)N3CCOCC3)CC2)cc1
> 30 µM | 4.9 µM | > 30 µM | > 30 µM | – | O=C(N1CCOCC1)N1CCN(c2ccc3ccccc3c2)CC1
